Results as given in PubChem BioAssay (NCI).
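Exposure lasted 48 hours, with cells grown in 96-well plates and compounds tested at five concentrations. GI50 marks 50% less growth. TGI marks complete inhibition of growth.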

Legend:
Experiment in all cases: inhibition of tumour cell growth, NCI panel, 48 h
SNB-19 CNS = test system: SNB-19 CNS
RXF 393 renal = test system: RXF 393 renal
RPMI-8226 leukemia = test system: RPMI-8226 leukemia
A549 NSCLC = test system: A549 NSCLC
CCRF-CEM leukemia = test system: CCRF-CEM leukemia
NCI-H522 lung = test system: NCI-H522 lung
SK-OV-3 ovarian = test system: SK-OV-3 ovarian
OVCAR-5 ovarian = test system: OVCAR-5 ovarian
A498 renal = test system: A498 renal
HS 578T breast = test system: HS 578T breast

Compound	GI50 (SNB-19 CNS) [µM]	TGI (SNB-19 CNS) [µM]	GI50 (RXF 393 renal) [µM]	TGI (RXF 393 renal) [µM]	GI50 (RPMI-8226 leukemia) [µM]	TGI (RPMI-8226 leukemia) [µM]	GI50 (A549 NSCLC) [µM]	TGI (A549 NSCLC) [µM]	GI50 (CCRF-CEM leukemia) [µM]	TGI (CCRF-CEM leukemia) [µM]	GI50 (NCI-H522 lung) [µM]	TGI (NCI-H522 lung) [µM]	GI50 (SK-OV-3 ovarian) [µM]	TGI (SK-OV-3 ovarian) [µM]	GI50 (OVCAR-5 ovarian) [µM]	TGI (OVCAR-5 ovarian) [µM]	GI50 (A498 renal) [µM]	TGI (A498 renal) [µM]	GI50 (HS 578T breast) [µM]	TGI (HS 578T breast) [µM]
C=CC(COC(c1ccccc1)(c1ccccc1)c1ccccc1)N(CC)CC (configuration not stated)	10.1	25.3	2.92	8.21	2.99	7.8	5.16	18.4	3.76	14.8	4.18	15.2	8.12	21.4	6.66	22.1	8.25	23.5	2.21	9.86
COc1cc(-c2csc(NC(=O)Nc3cc(Cl)cc(Cl)c3)n2)cc(OC)c1OC	1.93	4.03	1.73	3.76	2.42	9.24	1.72	3.61	3.41	> 100	2.05	7.09	1.86	3.75	2.25	6.16	1.42	3.1	1.94	4.91
Oc1ccc(N=Nc2ccccn2)c(O)c1	2.07	> 100	1.19	33.6	0.863	> 100	2.94	> 100	0.48	> 100	2.68	> 100	1.23	> 100	2.23	> 100	16.7	> 100	59.6	> 100
C/C(=N\NC(=S)N(C)C)c1ccccn1	0.011	16.3		13.4	0.000878	31.9		14.3	0.000277	0.232		1.98		0.889		6.85		8.11		37.2
COc1cccc2c1n([O-])c1cccc(OC)c1[n+]2=O			19.3	> 100	4.67	25	7.78	> 100	3.49	35.7	5.77	28.1	10.5	28.9	9.71	27.3	16.4	> 100	8.87	60.1
CCN(CC)C(=S)[S][Bi]([S]C(=S)N(CC)CC)[S]C(=S)N(CC)CC	1.71	3.08	0.183	0.36	0.23	2.15	1.74	3.27	0.0193		0.0157	0.0332	1.74	3.14	0.539	1.07	1.24	2.49	2.64	5.87
CCCCCCCCCCCCCCCCCC(=O)Nc1ccn(C2OC(CO)C(O)C2O)c(=O)n1 (configuration not stated)		69.7		> 100		> 100		> 100		26.2		75.4		> 100		> 100		99		> 100
O=C(NC(=S)Nc1cc(Cl)ccc1O)c1cccc(Br)c1	8.78	> 100	18.7	92.3	4.15	> 100	6.19	> 100	3.68	> 100	6.65	> 100	19.4	> 100	57.1	> 100	4.8	51.9	6.85	41
CC(C)(C)c1ccc(NS(=O)(=O)c2ccc3nc(NC(=O)c4cnccn4)[nH]c3c2)cc1	3.31	18.3	1.41	4.28	4.51	> 100	2.58	16.5	3.2	> 100	1.64	13.6			5.61	19	1.75	5.98	2.66	13.2
COc1ccc(Cn2cc3c(c2-c2cc(OC)c(OC)c(OC)c2)CCc2cnoc2-3)cc1	0.502	> 100	0.26	> 100	0.356		0.372	> 100	0.291	> 24.3	0.107	1.17	0.365	> 100	3.68	> 100	0.162	0.726	0.238	0.805
Cc1cc(C(=O)c2ccccc2)c(C)c2c1[nH]c1ccc(Cl)cc12	0.0541	35.1	0.0235	0.0771	0.0581	22	0.0834	> 100	0.046	> 100	0.0267	4.9	0.35	> 50.6	0.294	28	0.0305	0.282	0.0501	27.8
O=[N+]([O-])c1cccc2nccc(NCCCO)c12		69.5		21.5		46.6		49		57.5		20		61		35.6		23.6		43.3
CC1(C)C(=O)/C(=C\c2cccnc2)C[C@]2(C)[C@H]3CC[C@@H]4[C@@H](C(=O)/C=C/c5ccncc5)CC[C@@]4(C)[C@]3(C)CC[C@@H]12	1.66	3.22	1.72	3.18	1.21	5.43	2.62	10.7	1.79	8.53	1.66	4.6	4.86	18.9	2.45	5.36	1.89	3.7	2.78	7.93
